Legend:
[1] = Polarographic study of the oxidation potential; assay type: physicochemical; details: acetonitrile, 0.1 M lithium perchlorate, vitrous carbon electrode, calomel reference
Source text: By a polarographic study of their oxidation potential, compared to well-known antioxidants such as 2,6-diterbutyl-4-methyl-phenol, 2-terbutyl-4-methoxy-phenol, 4-methoxy-phenol and hydroquinone.
Reference electrode: Calomel electrode containing a saturated solution of anhydrous lithium perchlorate as bridge liquid.
Working electrode: Vitrous carbon rotating electrode (2,500 r.p.m.)
Counter-electrode: Platinum electrode
Acetonitrile containing less than 0.1% of water and presenting no polarographic waves between -2.5 V and +2.5 V.
Anhydrous lithium perchlorate containing less than 1% of water.
A 0.1 M solution of lithium perchlorate in acetonitrile, treated and preserved on a 4 A molecular sieve.
Amplitude of exploration: 0 to 2 V
Speed of exploration: 10 mV/second
Sensitivity: 1.25 μA to 50 μA
Mean concentration: about 0.3×10^-3 mol/liter
Between each measurement, the vitrous carbon electrode and the platinum electrode were carefully cleaned with Joseph paper.

[2] = Thermostability, flexible co-polymer (b), Metrastat oven 160° C.; details: 0.2 part
Procedure: (§1) The study of the static thermostability of vinyl co-polymers was carried out according to the GARDNER method described above and, also in a more detailed manner in British Patent No. 1,489,685.
(b) Flexible co-polymer vinyl chloride-vinyl acetate.
(§2) The following compound was prepared:
The resin was allowed to gel for 5 minutes at 120° C. and the sheets were heated at 160° C. in a Metrastat oven.

[3] = Static thermostability (GARDNER method), rigid PVC sheets, 185° C., 0.3 part stabilizer
In short: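 Rigid PVC sheets, calendered at 160° C with 0.3 part stabilizer and usual additives, were heated at 185° C. Samples came out every 6 min to 24 min, then every 3 min up to 42 min or carbonization, and colour was scored on the GARDNER scale.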

[4] = Static thermostability (GARDNER method), rigid PVC sheets, 210° C., 0.3 part stabilizer; details: for coloration of the resins, in words: 0 to 3 minutes
In short: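 Rigid sheets calendered at 160° C. from powdered PVC resin with 0.3 part by weight stabilizer (dihydropyridine or 2-phenyl-indole reference) plus usual ingredients. Sheets heated in oven at 210° C., removed every three minutes over 21 minutes until incipient carbonization. Coloration scored against GARDNER scale reference figures.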

[5] = Thermostability, flexible co-polymer (c), Metrastat oven 160° C.; details: 0.3 part
Procedure: as §1
(c) Flexible co-polymer vinyl chloride-vinyl acetate
as §2
The sheets were heated in a Metrastat oven at 160° C. and the following results were obtained: […]

[6] = Photostabilizing power, sheets exposed to the sun, rigid co-polymer (b)
Procedure: (§3) The sheets were exposed to the sun and their colorations were also determined according to the GARDNER method.

[7] = Comparison with stabilizer G1, 0.1 part, 185° C.
Procedure: A test was also carried out with the following compound:
Another test was made with the same resin but containing 0.1 part of stabilizer.

[8] = Photostabilizing power, PVC plates exposed to the sun, GARDNER scale
In short: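 Stabilized polyvinyl chloride plates, resin mixed on cylinders at 160° C, were exposed to sunlight alongside an unstabilized plate. Colour was read on the GARDNER scale after 6 and 12 hours. A + or − sign marks a half-unit step.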

[9] = Comparison with 2-phenyl-indole, vinyl chloride-vinylidene chloride co-polymer, 210° C.; details: 0.3 part
Procedure: A second test was made using the following compound:
(§4) The sheets were heated in a ventilated oven at 210° C. and the following results were obtained: […]

[10] = Photostabilizing power, sheets exposed to the sun, co-polymer (a)
Procedure: as §3

[11] = Thermostability, rigid co-polymer (e), ventilated oven 210° C.; details: 0.3 part
Procedure: as §1
(e) Rigid co-polymer vinyl chloride-vinylidene chloride
as §2, §4

[12] = Comparison with stabilizer G1, rigid co-polymer (12.5 to 13.5% of acetate), 0.5 part, 185° C.
Source text: Another comparison was made with the following rigid co-polymer: […]

CC1=C(C(=O)OCc2ccccc2)CC(C(=O)OCc2ccccc2)=C(C)N1 [Compound 21, 2,6-Dimethyl-3,5-dicarbobenzyloxy-1,4-dihydropyridine]
Oxidation potential [1]: 0.73 ± 0.01 volts | coloration, GARDNER scale ([2]; 0 min): 1 | coloration, GARDNER scale ([2]; 30 min): 1 | coloration, GARDNER scale ([2]; 40 min): 3 | coloration, GARDNER scale ([2]; 50 min): 8 | coloration, GARDNER scale ([2]; 60 min): 15 | coloration, GARDNER scale ([3]; 0 min): 1 | coloration, GARDNER scale ([3]; 6 min): 1 | coloration, GARDNER scale ([3]; 12 min): 2 | coloration, GARDNER scale ([3]; 18 min): 10 | coloration, GARDNER scale ([3]; 24 min): 12 | coloration, GARDNER scale ([3]; 27 min): 12 | coloration, GARDNER scale ([3]; 30 min): 13 | coloration, GARDNER scale ([3]; 33 min): 14 | coloration, GARDNER scale ([3]; 36 min): Burnt | coloration, GARDNER scale ([4]; 0 min): 1 | coloration of the resins, in words [4]: considerably less | coloration, GARDNER scale ([4]; 3 min): 1 | coloration, GARDNER scale ([4]; 6 min): 2 | coloration, GARDNER scale ([4]; 9 min): 3 | coloration, GARDNER scale ([4]; 12 min): 5.5 | coloration, GARDNER scale ([4]; 15 min): 14 | coloration, GARDNER scale ([4]; 18 min): Burnt | coloration, GARDNER scale ([5]; 0 min): 1 | coloration, GARDNER scale ([5]; 10 min): 1 | coloration, GARDNER scale ([5]; 20 min): 2 | coloration, GARDNER scale ([5]; 30 min): 5 | coloration, GARDNER scale ([5]; 40 min): 6 | coloration, GARDNER scale ([5]; 50 min): 7 | coloration, GARDNER scale ([5]; 60 min): 12 | Colour in GARDNER degrees ([6]; After 24 hours): 3.5 GARDNER degrees | Colour in GARDNER degrees ([6]; Time 0): 1.5 GARDNER degrees | coloration, GARDNER scale ([7]; 0 min): 1 | coloration, GARDNER scale ([7]; 2 min): 1 | coloration, GARDNER scale ([7]; 4 min): 2 | coloration, GARDNER scale ([7]; 6 min): 4 | coloration, GARDNER scale ([7]; 8 min): 11 | coloration, GARDNER scale ([7]; 10 min): 13 | coloration, GARDNER scale ([7]; 12 min): 17 | Coloration of the plates GARDNER ([8]; exposure to sun 0): 1 | Coloration of the plates GARDNER ([8]; exposure to sun 6h): 1 | Coloration of the plates GARDNER ([8]; exposure to sun 12h): 1.5 | coloration, GARDNER scale ([9]; 0 min): 1.5 | coloration, GARDNER scale ([9]; 3 min): 2 | coloration, GARDNER scale ([9]; 6 min): 2 | coloration, GARDNER scale ([9]; 9 min): 3 | coloration, GARDNER scale ([9]; 12 min): 7 | coloration, GARDNER scale ([9]; 15 min): 15 | Colour in GARDNER degrees ([10]; After 24 hours): 1 GARDNER degrees | Colour in GARDNER degrees ([10]; Time 0): 1 GARDNER degrees

C=CCOC(=O)C1=C(C)NC(C)=C(C(=O)OCC=C)C1 [Compound 1, 2,6-Dimethyl-3,5-dicarboallyloxy-1,4-dihydropyridine]
Oxidation potential [1]: 0.75 ± 0.01 volts | coloration, GARDNER scale ([2]; 0 min): 1 | coloration, GARDNER scale ([2]; 30 min): 2 | coloration, GARDNER scale ([2]; 40 min): 6 | coloration, GARDNER scale ([2]; 50 min): 12 | coloration, GARDNER scale ([2]; 60 min): 15 | coloration, GARDNER scale ([3]; 0 min): 1 | coloration, GARDNER scale ([3]; 6 min): 1 | coloration, GARDNER scale ([3]; 12 min): 3 | coloration, GARDNER scale ([3]; 18 min): 3 | coloration, GARDNER scale ([3]; 24 min): 5 | coloration, GARDNER scale ([3]; 27 min): 7 | coloration, GARDNER scale ([3]; 30 min): 10 | coloration, GARDNER scale ([3]; 33 min): 10.5 | coloration, GARDNER scale ([3]; 36 min): 11 | coloration, GARDNER scale ([3]; 39 min): 16 | coloration, GARDNER scale ([3]; 42 min): Burnt | coloration, GARDNER scale ([4]; 0 min): 1 | coloration of the resins, in words [4]: considerably less | coloration, GARDNER scale ([4]; 3 min): 1 | thermostabilizing power compared to 2-phenyl-indole, in words ([4]; 210° C.): greatly superior to 2-phenyl-indole | coloration, GARDNER scale ([4]; 6 min): 2 | coloration, GARDNER scale ([4]; 9 min): 4 | coloration, GARDNER scale ([4]; 12 min): 7 | coloration, GARDNER scale ([4]; 15 min): Burnt | coloration, GARDNER scale ([5]; 0 min): 1 | coloration, GARDNER scale ([5]; 10 min): 1 | coloration, GARDNER scale ([5]; 20 min): 2 | coloration, GARDNER scale ([5]; 30 min): 4 | coloration, GARDNER scale ([5]; 40 min): 5.5 | coloration, GARDNER scale ([5]; 50 min): 6 | coloration, GARDNER scale ([5]; 60 min): 7 | Colour in GARDNER degrees ([6]; After 24 hours): 2 GARDNER degrees | Colour in GARDNER degrees ([6]; Time 0): 1 GARDNER degrees | coloration, GARDNER scale ([7]; 0 min): 1 | coloration, GARDNER scale ([7]; 2 min): 1 | coloration, GARDNER scale ([7]; 4 min): 2 | coloration, GARDNER scale ([7]; 6 min): 4 | coloration, GARDNER scale ([7]; 8 min): 8 | coloration, GARDNER scale ([7]; 10 min): 11 | coloration, GARDNER scale ([7]; 12 min): 12 | coloration, GARDNER scale ([7]; 14 min): 13 | Coloration of the plates GARDNER ([8]; exposure to sun 0): 1 | Coloration of the plates GARDNER ([8]; exposure to sun 6h): 1 | Coloration of the plates GARDNER ([8]; exposure to sun 12h): 1.5 | coloration, GARDNER scale ([11]; 0 min): 1 | coloration, GARDNER scale ([11]; 3 min): 1 | coloration, GARDNER scale ([11]; 6 min): 2 | coloration, GARDNER scale ([11]; 9 min): 4 | coloration, GARDNER scale ([11]; 12 min): 10 | coloration, GARDNER scale ([9]; 0 min): 1 | coloration, GARDNER scale ([9]; 3 min): 1 | coloration, GARDNER scale ([9]; 6 min): 2 | coloration, GARDNER scale ([9]; 9 min): 4 | coloration, GARDNER scale ([9]; 12 min): 10 | Colour in GARDNER degrees ([10]; After 24 hours): 1 GARDNER degrees | Colour in GARDNER degrees ([10]; Time 0): 1 GARDNER degrees | coloration, GARDNER scale ([12]; 0 min): 1 | coloration, GARDNER scale ([12]; 2 min): 1 | coloration, GARDNER scale ([12]; 4 min): 2 | coloration, GARDNER scale ([12]; 6 min): 3 | coloration, GARDNER scale ([12]; 10 min): 12 | coloration, GARDNER scale ([12]; 12 min): 18 | coloration, GARDNER scale ([12]; column without printed time, between 6 and 10 min): 7

— patent US4317768A, “Dihydropyridine derivatives as stabilizers for vinyl chloride polymers” (priority 1977, dated 1982)
